Assay results taken from ChEMBL document CHEMBL3046059, “Syntheses and biological activities of octahydro-1H-cyclopenta[d]pyrimidine derivatives” (2007).

test system: Aphis craccivora; assay: Insecticidal activity against Aphis craccivora (cowpea aphid) assessed as mortality at 125 ug/mL measured after 1 day; format: functional; settings: 24 h

Compound | mortality at 125 µg/mL [%]
CC(C)N1CC([N+](=O)[O-])=C2N(CC3CCCC3N2Cc2ccc(Cl)nc2)C1 (stereo not given) | 56

test system: Aphis craccivora; assay: Insecticidal activity against Aphis craccivora (cowpea aphid) assessed as mortality at 15.625 ug/mL measured after 1 day; format: functional; settings: 24 h

Compound | mortality at 15.625 µg/mL [%]
O=[N+]([O-])/C=C1\NCCN1Cc1ccc(Cl)nc1 | 60

test system: Aphis craccivora; assay: Insecticidal activity against Aphis craccivora (cowpea aphid) assessed as mortality at 450 ug/mL measured after 1 day; format: functional; settings: 24 h

Compound | mortality at 450 µg/mL [%]
CC(C)N1CC([N+](=O)[O-])=C2N(CC3CCCC3N2Cc2ccc(Cl)nc2)C1 (stereo not given) | 88

test system: Aphis craccivora; assay: Insecticidal activity against Aphis craccivora (cowpea aphid) assessed as mortality at 500 ug/mL measured after 1 day; format: functional; settings: 24 h

Compound | mortality at 500 µg/mL [%]
O=[N+]([O-])/C=C1\NCC2CCCC2N1Cc1cccnc1 (stereo not given) | 82
N#C/N=C1\NCC2CCCC2N1Cc1ccc(Cl)nc1 (stereo not given) | 38
CCCN1CC([N+](=O)[O-])=C2N(CC3CCCC3N2Cc2ccc(Cl)nc2)C1 (stereo not given) | 61
CS/C(=N\C#N)NCC1CCCC1NCc1ccc(Cl)nc1 (stereo not given) | 34
CN1CC([N+](=O)[O-])=C2N(CC3CCCC3N2Cc2ccc(Cl)nc2)C1 (stereo not given) | 54
O=[N+]([O-])/C=C1\NCC2CCCC2N1Cc1ccc(Cl)nc1 (stereo not given) | 83
CC1CCC2CN/C(=C\[N+](=O)[O-])N(Cc3ccc(Cl)nc3)C12 (stereo not given) | 51
CCCCN1CC([N+](=O)[O-])=C2N(CC3CCCC3N2Cc2ccc(Cl)nc2)C1 (stereo not given) | 32
O=[N+]([O-])/C=C1\NC2CCCC2CN1Cc1ccc(Cl)nc1 (stereo not given) | < 59
O=[N+]([O-])C1=C2N(CC3CCCC3N2Cc2ccc(Cl)nc2)CN(CCO)C1 (stereo not given) | 60
CCN1CC([N+](=O)[O-])=C2N(CC3CCCC3N2Cc2ccc(Cl)nc2)C1 (stereo not given) | 90

test system: Aphis craccivora; assay: Insecticidal activity against Aphis craccivora (cowpea aphid) assessed as mortality at 62.5 ug/mL measured after 1 day; format: functional; settings: 24 h

Compound | mortality at 62.5 µg/mL [%]
O=[N+]([O-])/C=C1\NCCN1Cc1ccc(Cl)nc1 | 94
